Measured values as given in patent US20240246956A1, “CLASS IIA HISTONE DEACETYLASE (HDAC) DEGRADER LIGANDS AND METHODS OF USE THEREOF” (DANA-FARBER CANCER INSTITUTE, INC., priority 2021, published 2024).

Assays:
HDAC6 = HDAC6 (Homo sapiens, UniProt Q9UBN7); details: FIG. 2A
Method: (§1) The in vitro HDAC enzymatic assays were performed by Reaction Biology (Devault, PA).

HDAC8 = HDAC8 (Homo sapiens, UniProt Q9BY41); details: FIG. 2A
Method: as §1

HDAC5 [1] = molecular target: T1, HDAC5 (Homo sapiens, UniProt Q9UQL6); test: In vitro HDAC enzymatic assay (Reaction Biology); assay type: biochemical; parameters: purchased Reaction Biology (Devault, PA); details: dose response, FIG. 2A-2B
T1 sequence (Q9UQL6 whole entry): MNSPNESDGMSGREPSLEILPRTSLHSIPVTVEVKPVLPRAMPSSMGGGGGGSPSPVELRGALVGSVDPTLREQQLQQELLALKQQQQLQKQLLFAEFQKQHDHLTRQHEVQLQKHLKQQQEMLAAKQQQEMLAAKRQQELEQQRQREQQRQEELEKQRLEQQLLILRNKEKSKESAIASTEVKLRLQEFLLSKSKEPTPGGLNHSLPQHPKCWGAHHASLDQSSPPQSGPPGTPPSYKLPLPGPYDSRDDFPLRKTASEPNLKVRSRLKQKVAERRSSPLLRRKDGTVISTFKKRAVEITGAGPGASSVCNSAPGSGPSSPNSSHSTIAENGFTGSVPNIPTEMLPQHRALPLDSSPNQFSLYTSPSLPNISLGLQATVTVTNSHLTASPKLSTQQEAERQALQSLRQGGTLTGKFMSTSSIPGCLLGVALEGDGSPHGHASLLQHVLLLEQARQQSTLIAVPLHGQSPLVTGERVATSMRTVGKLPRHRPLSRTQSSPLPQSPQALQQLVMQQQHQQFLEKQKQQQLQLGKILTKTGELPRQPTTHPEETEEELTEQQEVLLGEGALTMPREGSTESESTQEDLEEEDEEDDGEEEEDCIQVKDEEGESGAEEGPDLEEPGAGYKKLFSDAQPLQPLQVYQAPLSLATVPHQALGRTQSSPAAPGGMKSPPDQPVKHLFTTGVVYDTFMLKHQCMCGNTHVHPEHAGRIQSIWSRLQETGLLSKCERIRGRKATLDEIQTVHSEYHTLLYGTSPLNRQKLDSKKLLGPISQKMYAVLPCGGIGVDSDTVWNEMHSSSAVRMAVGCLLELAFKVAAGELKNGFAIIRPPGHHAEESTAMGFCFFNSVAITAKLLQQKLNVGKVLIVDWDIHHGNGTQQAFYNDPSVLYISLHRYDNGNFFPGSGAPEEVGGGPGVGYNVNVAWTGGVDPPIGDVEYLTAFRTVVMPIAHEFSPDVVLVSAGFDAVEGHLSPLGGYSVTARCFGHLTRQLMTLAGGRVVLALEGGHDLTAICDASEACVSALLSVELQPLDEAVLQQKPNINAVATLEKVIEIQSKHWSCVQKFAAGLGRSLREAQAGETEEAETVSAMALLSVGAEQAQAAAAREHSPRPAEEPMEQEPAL

HDAC7 = molecular target: T2, HDAC7 (Homo sapiens, UniProt Q8WUI4); test: Global quantitative proteomics, change in protein abundance in Kelly cells; assay type: cell-based; parameters: endogenous in cells; host or cells: Kelly cells; details: 1 μM, 5-hour treatment, vs DMSO, FIG. 3
T2 sequence (Q8WUI4 1-952): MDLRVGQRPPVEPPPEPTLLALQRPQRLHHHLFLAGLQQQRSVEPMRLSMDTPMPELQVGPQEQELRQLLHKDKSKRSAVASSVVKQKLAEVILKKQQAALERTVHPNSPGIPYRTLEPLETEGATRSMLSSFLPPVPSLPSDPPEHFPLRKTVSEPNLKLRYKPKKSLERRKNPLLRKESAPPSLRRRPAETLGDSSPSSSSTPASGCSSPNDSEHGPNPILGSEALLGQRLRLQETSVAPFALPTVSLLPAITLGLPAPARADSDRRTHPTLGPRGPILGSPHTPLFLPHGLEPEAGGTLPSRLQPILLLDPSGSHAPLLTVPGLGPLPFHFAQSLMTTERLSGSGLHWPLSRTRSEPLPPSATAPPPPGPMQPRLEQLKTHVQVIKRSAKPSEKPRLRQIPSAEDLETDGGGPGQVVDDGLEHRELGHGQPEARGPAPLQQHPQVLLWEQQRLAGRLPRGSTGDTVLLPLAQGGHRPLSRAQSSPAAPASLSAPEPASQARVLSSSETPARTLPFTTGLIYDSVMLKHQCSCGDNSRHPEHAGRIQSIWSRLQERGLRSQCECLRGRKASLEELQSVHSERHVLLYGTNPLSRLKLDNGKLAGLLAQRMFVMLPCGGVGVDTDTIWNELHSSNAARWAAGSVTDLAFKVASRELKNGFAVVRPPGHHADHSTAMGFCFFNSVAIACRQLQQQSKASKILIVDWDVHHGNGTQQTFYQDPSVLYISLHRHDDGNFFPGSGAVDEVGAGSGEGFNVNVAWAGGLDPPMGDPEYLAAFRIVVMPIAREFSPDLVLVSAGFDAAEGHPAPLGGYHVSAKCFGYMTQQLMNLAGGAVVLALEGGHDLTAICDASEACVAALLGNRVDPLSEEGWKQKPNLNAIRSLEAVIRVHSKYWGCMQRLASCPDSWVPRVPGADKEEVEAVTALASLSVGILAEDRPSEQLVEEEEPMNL
Method: (§2) Cells were washed once with phosphate-buffered saline (PBS), harvested with CellstripperTM (Corning®), washed two additional times with PBS and snap frozen in liquid nitrogen. […] Proteins were precipitated using methanol/chloroform in Donovan et al., Elife 7:e38430 (2018). The precipitated protein was resuspended in 4 M Urea, 50 mM HEPES pH 7.4, followed by dilution to 1 M urea with the addition of 200 mM EPPS, pH 8. Proteins were first digested with LysC (1:50: enzyme:protein) for 12 hours at room temperature. The LysC digestion was diluted to 0.5 M Urea with 200 mM EPPS pH 8 followed by digestion with trypsin (1:50: enzyme:protein) for 6 hours at 37° C. Tandem mass tag (TMT) reagents (Thermo Fisher Scientific) were dissolved in anhydrous acetonitrile (ACN) according to manufacturer's instructions. Anhydrous ACN was added to each peptide sample to a final concentration of 30% v/v, and labeling was induced with the addition of TMT reagent to each sample at a ratio of 1:4 peptide:TMT label. The 11-plex labeling reactions were performed for 1.5 hours at room temperature and the reaction quenched by the addition of hydroxylamine to a final concentration of 0.3% for 15 minutes at room temperature. The sample channels were combined at a 1:1 ratio, desalted using C18 solid phase extraction cartridges (Waters®) and analyzed by LC-MS for channel ratio comparison. Samples were then combined using the adjusted volumes determined in the channel ratio analysis and dried down in a speed vacuum. The combined sample was then resuspended in 1% formic acid, and acidified (pH 2-3) before being subjected to desalting with C18 SPE (Sep-Pak®-, Waters®). […] The 96 resulting fractions were then pooled in a non-contiguous manner into 24 fractions and these fractions were used for subsequent mass spectrometry analysis. Data were collected using an Orbitrap FusionTM LumosTM mass spectrometer (Thermo Fisher Scientific, San Jose, CA, USA) coupled with a […] pump (Thermo Fisher Scientific). Peptides were separated on an EasySprayTM ES803.rev2 75 μm inner diameter microcapillary column (ThermoFisher Scientific). Peptides were separated using a 190 min gradient of 6-27% acetonitrile in 1.0% formic acid with a flow rate of 300 nL/min. Each analysis used an MS3-based TMT method as described in McAlister et al., Anal. Chem. 86(14):7150-7158 (2014). The data were acquired using a mass range of m/z 340-1350, resolution 120,000, automatic gain control (AGC) target 1×10^6, maximum injection time 100 ms, dynamic exclusion of 120 seconds for the peptide measurements in the Orbitrap FusionTM LumosTM mass spectrometer. Data dependent MS2 spectra were acquired in the ion trap with a normalized collision energy (NCE) set at 55%, AGC target set to 1.5×10^5 and a maximum injection time of 150 ms. MS3 scans were acquired in the Orbitrap FusionTM LumosTM mass spectrometer with a higher energy collision dissociation (HCD) set to 55%, AGC target set to 1.5×10^5, maximum injection time of 150 ms, resolution at 50,000 and with a maximum synchronous precursor selection (SPS) precursors set to 10. Proteome Discoverer 2.2 (Thermo Fisher Scientific) was used for .RAW file processing and controlling peptide and protein level false discovery rates, assembling proteins from peptides, and protein quantification from peptides. MS/MS spectra were searched against a Swissprot human database (December 2016) with both the forward and reverse sequences. […] TMT reporter ion intensities were measured using a 0.003 Da window around the theoretical m/z for each reporter ion in the MS3 scan. […] Reporter ion intensities were normalized and scaled using in-house scripts in the R framework. Statistical analysis was carried out using the limma package within the R framework as described in Ritchie et al., Nucleic Acids Res. 43(7):e47 (2015).

HDAC4 = HDAC4 (Homo sapiens, UniProt P56524); test: as above; assay type: cell-based; parameters: endogenous in cells; host or cells: Kelly cells; details: 1 μM, 5-hour treatment, vs DMSO, FIG. 3
Chain of HDAC4 (P56524 whole entry): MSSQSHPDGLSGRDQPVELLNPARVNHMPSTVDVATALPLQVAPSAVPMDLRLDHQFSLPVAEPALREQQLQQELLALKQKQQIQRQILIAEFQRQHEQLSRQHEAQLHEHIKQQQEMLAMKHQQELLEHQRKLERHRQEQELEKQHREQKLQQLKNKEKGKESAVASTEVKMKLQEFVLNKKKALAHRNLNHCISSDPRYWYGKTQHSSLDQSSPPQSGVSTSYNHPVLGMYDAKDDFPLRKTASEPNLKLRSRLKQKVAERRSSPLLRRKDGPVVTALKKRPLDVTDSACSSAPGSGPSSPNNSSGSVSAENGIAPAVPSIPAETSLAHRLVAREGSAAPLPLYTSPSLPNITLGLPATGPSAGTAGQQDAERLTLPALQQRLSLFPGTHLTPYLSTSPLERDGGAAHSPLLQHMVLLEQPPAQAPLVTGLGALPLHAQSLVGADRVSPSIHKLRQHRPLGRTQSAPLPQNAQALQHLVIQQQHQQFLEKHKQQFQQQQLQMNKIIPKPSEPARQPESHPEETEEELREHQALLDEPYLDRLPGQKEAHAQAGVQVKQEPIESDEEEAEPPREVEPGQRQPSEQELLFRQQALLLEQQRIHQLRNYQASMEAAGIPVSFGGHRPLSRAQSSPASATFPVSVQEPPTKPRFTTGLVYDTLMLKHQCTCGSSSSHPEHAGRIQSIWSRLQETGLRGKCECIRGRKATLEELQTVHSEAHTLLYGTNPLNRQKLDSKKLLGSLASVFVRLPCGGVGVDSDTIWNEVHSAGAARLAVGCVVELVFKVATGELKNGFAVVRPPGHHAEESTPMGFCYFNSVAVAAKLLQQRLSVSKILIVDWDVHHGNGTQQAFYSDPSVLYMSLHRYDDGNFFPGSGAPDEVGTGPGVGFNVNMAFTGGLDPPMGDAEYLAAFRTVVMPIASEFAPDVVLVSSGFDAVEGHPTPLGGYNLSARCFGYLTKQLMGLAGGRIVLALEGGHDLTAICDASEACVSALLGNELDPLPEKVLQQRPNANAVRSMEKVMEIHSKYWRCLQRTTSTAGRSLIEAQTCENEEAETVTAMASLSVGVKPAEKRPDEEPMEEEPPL
Method: as §2

HDAC5 [2] = molecular target: T1, HDAC5; test: as above; assay type: cell-based; parameters: endogenous in cells; host or cells: Kelly cells; details: 1 μM, 5-hour treatment, vs DMSO, FIG. 3
Method: as §2

Chain of HDAC8 (Q9BY41 whole entry): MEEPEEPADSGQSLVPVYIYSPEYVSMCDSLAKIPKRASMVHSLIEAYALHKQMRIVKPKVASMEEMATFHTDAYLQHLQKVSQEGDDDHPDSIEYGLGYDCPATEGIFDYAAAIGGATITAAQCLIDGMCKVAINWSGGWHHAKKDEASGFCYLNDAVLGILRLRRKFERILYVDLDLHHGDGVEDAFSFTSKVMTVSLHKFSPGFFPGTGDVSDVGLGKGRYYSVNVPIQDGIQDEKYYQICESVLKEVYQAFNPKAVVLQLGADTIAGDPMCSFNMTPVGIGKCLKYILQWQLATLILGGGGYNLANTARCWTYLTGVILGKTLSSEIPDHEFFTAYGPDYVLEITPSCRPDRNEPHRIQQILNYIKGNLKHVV
Chain of HDAC6 (Q9UBN7 whole entry): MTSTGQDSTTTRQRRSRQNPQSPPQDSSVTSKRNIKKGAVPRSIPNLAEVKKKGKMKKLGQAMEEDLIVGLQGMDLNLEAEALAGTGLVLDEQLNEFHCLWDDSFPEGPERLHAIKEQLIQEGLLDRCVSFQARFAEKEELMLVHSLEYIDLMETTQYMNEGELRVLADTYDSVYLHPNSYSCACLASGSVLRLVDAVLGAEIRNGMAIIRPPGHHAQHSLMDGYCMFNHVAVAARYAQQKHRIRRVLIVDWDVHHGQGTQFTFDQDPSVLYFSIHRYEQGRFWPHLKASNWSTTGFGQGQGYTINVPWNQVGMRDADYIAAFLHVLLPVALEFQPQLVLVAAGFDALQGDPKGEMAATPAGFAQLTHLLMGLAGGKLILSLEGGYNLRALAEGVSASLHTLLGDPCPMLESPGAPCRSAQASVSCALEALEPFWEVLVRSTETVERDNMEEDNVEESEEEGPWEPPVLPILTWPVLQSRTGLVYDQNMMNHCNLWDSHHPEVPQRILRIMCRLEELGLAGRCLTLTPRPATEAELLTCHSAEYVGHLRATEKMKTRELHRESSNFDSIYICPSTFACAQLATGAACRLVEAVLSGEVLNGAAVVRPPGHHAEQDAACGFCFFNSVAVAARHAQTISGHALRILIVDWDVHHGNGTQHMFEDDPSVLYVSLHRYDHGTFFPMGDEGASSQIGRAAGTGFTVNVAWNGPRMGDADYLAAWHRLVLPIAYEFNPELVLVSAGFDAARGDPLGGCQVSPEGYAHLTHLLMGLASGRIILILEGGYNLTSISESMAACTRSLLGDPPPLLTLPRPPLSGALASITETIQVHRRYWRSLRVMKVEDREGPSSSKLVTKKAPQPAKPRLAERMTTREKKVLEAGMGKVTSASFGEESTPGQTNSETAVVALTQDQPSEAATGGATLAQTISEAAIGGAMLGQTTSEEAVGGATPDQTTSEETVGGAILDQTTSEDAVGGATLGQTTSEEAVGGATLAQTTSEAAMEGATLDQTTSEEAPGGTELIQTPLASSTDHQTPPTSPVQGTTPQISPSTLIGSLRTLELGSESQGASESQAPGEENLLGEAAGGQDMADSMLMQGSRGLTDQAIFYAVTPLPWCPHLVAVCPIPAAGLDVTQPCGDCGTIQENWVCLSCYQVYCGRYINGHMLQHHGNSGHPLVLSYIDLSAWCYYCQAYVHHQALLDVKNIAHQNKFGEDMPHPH

## O=C1CCC(N2C(=O)c3cccc(NCCCCCCN4CCC(CNC(=O)c5cccc(-c6noc(C(F)(F)F)n6)c5)(c5nc(-c6ccccc6)cs5)CC4)c3C2=O)C(=O)N1 (centres unmarked) [Compound 1]
HDAC6
  inhibition of HDAC6: did not inhibit
HDAC8
  inhibition of HDAC8: did not inhibit
HDAC5 [1]
  inhibition of HDAC5: inhibited
HDAC7
  protein expression level of HDAC7: selective reduction in protein expression level

## CCN(CCNc1cccc2c1C(=O)N(C1CCC(=O)NC1=O)C2=O)C[C@@H](C)NC(=O)c1ccc(-c2noc(C(F)(F)F)n2)cc1 (stereo partly drawn) [Compound 16, N-((2R)-1-((2-((2-(2,6-dioxopiperidin-3-yl)-1,3-dioxoisoindolin-4-yl)amino)ethyl)(ethyl)amino)propan-2-yl)-4-(5-(trifluoromethyl)-1,2,4-oxadiazol-3-yl)benzamide]
HDAC5 [1]
  inhibition of HDAC5: inhibited
HDAC4
  protein expression level of HDAC4: reduction in protein expression level
HDAC5 [2]
  protein expression level of HDAC5: reduction in protein expression level
HDAC7
  protein expression level of HDAC7: reduction in protein expression level
